“Also recorded” adds a separate entry of the source.
Key:
[1] = tested on: Escherichia coli RtcB ligase; experiment: E. coli RtcB RNA ligation assay (3′-P and 5′-OH termini, urea-polyacrylamide gel); format: biochemical; settings: for use as cofactor in ligation of 3′-P and 5′-OH RNA termini: in place of GTP, tRNA anticodon stem-loop mimic substrate, with Mn2+ (FIG. 1B, 1C)
Text: FIG. 1. […] (A) RNA ligation substrate that mimics a broken tRNA anti-codon. FAM label allows visualization in a urea-polyacrylamide gel. […] (B) Cofactor- and metal-dependence of ligation. Reactions contain manganese, except in the “—Mn^2+” lane. The lane labeled “C78A” is a ligation reaction performed with RtcB that has a C78A substitution within the predicted metal binding site. (C) Ligation assays using GTP analogues as cofactors. […] (E) RNA termini specificity of RtcB. Modifications to the ligatable ends of the tRNA mimic substrate were made as indicated and tested in ligation reactions.
To assay for ligation, we initially used two single-stranded RNA (ssRNA) oligos that were each 10 nucleotides in length. The 5′ RNA fragment was labeled with 6-carboxyfluorescein (FAM) at its 5′ end and phosphorylated at its 3′ end. The 3′ RNA fragment had hydroxyl groups at each end. We intended to convert the 3′-P into a 2′,3′-cyclic phosphate by incubation with RtcA and ATP, so as to produce a suitable substrate for RtcB.
These reactions were performed with high concentrations of GTP analogues to ensure saturation of RtcB.
We investigated the RNA termini structure requirements for ligation by modifying the ends of our tRNA mimic substrate. First, all four combinations of either a phosphate or hydroxyl group at each termini were sampled while maintaining a 2′-OH on the 5′ side of the ligation junction. […] Next, the importance of the terminal ribose 2′-OH for ligation was probed by replacing this hydroxyl group with either hydrogen (2′-H) or fluorine (2′-F).

[2] = tested on: P. horikoshii RtcB; experiment: P. horikoshii RtcB RNA ligation assay; format: biochemical, Pyrococcus horikoshii; settings: for use as cofactor in RNA ligation with Archease: Archease 0.25 μM, NTP 100 μM, RtcB 5 μM (FIG. 10B, 11B)
Text: FIG. 2. P. horikoshii RtcB catalyzed ligation of 3′-P and 5′-OH RNA termini. P. horikoshii RtcB requires Mn^2+ and GTP for ligation. […] The lane labeled “2′-deoxy” is a ligation reaction using the tRNA mimic substrate but with a 3′-P/2′-H termini on its 5′ fragment. The lane labeled “C98A” is a ligation reaction with RtcB that has a C98A substitution within the predicted metal-binding site.
RtcB from the archaeal domain of life likewise catalyzes the GTP-dependent ligation of 3′-P and 5′-OH RNA termini. The crystal structure of RtcB from a hyperthermophilic archaeon, Pyrococcus horikoshii, was determined as part of a structural genomics project (21). […] The P. horikoshii homologue has 29% amino-acid sequence identity to E. coli RtcB, and 49% identity to the human ligase (HSPC117). To investigate if RtcB from archaea catalyzes the GTP-dependent ligation of 3′-P and 5′-OH RNA termini, we synthesized a P. horikoshii rtcB gene and produced soluble enzyme in E. coli. […] The P. horikoshii ligase also required a 2′-OH on the terminal nucleotide of the 5′ RNA fragment.
RNA Ligation Assay. Ligation assays with single-stranded RNA as the substrate used two 10-nt oligonucleotides that were synthesized by Integrated DNA Technologies (15). […] The 3′ RNA fragment had hydroxyl groups on each end. The sequence of the 5′ fragment was FAM-5′-AAAUAACAAA-3′-P (SEQ ID NO:6) and the sequence of the 3′ RNA fragment was 5′-AAAUAACAAA-3′ (SEQ ID NO:6). Ligation reactions were performed in 10-μL solutions consisting of 50 mM Bis-Tris buffer, pH 7.0, containing NaCl (300 mM), […] (0.25 mM), GTP (100 μM), each RNA fragment (1 μM), and RtcB (10 μM). Reaction mixtures were incubated at 70° C. for 1 h prior to the addition of water (40 μL) and RNA-loading buffer (50 μL). Reaction mixtures were subjected to electrophoresis and visualized as previously described in the previous examples.
The ability of Archease to activate P. horikoshii RtcB was tested in reactions using ssRNA substrates. Ligation reactions included a 10-nt 5′ RNA fragment and a 10-nt 3′ RNA fragment. […] The 3′ RNA fragment had hydroxyl groups on each end. The sequence of the 5′ fragment was FAM-5′-AAAUAACAAA-3′-P (SEQ ID NO:6) and the sequence of the 3′ RNA fragment was 5′-AAAUAACAAA-3′ (SEQ ID NO:6). Ligation reactions were performed in 50-μL solutions consisting of 50 mM Tris-HCl buffer, pH 7.4, containing NaCl (300 mM), MnCl2 (0.25 mM), GTP (100 μM), RNA fragments (100 pmol of each), and P. horikoshii RtcB (5 μM).
Ligation reaction mixtures were set up as described above, and each was divided into two tubes. No Archease was added to one set of reaction mixtures (FIG. 10A), and Archease was added to a concentration of 0.25 μM to the other set (FIG. 10B). […] Archease had no effect on ligation reactions that used 2′-F RNA.
We tested the ability of Archease to enable RtcB to use cofactors other than GTP or dGTP. Ligation reaction mixtures with RtcB were set up as described above, and each was divided into two tubes. No Archease was added to one set of reaction mixtures (FIG. 11A), and Archease was added to a concentration of 0.25 μM to the other set (FIG. 11B). The various NTPs were included at a concentration of 100 μM.

Molecule | use as cofactor in ligation of 3′-P and 5′-OH RNA termini [1] | further results
Nc1nc2c(ncn2[C@@H]2O[C@H](COP(=O)(O)OP(=O)(O)OP(O)(O)=S)[C@@H](O)[C@H]2O)c(=O)[nH]1 [GTPγS] | enabled ligation, albeit at lower efficiency than did GTP | –
Nc1nc2c(ncn2[C@@H]2O[C@H](COP(=O)(O)OP(=O)(O)NP(=O)(O)O)[C@@H](O)[C@H]2O)c(=O)[nH]1 [GppNHp] | enabled ligation, albeit at lower efficiency than did GTP | –
Nc1nc2c(ncn2[C@@H]2O[C@H](COP(=O)(O)OP(=O)(O)CP(=O)(O)O)[C@@H](O)[C@H]2O)c(=O)[nH]1 [GppCp] | enabled ligation, albeit at lower efficiency than did GTP | –
O=c1ccn([C@@H]2O[C@H](COP(=O)(O)OP(=O)(O)OP(=O)(O)O)[C@@H](O)[C@H]2O)c(=O)[nH]1 [UTP] | unable to substitute for GTP | use as cofactor in RNA ligation with Archease [2]: not
Nc1ccn([C@@H]2O[C@H](COP(=O)(O)OP(=O)(O)OP(=O)(O)O)[C@@H](O)[C@H]2O)c(=O)n1 [CTP] | unable to substitute for GTP | use as cofactor in RNA ligation with Archease [2]: not
Nc1nc2c(ncn2[C@@H]2O[C@H](COP(=O)(O)OP(=O)(O)O)[C@@H](O)[C@H]2O)c(=O)[nH]1 [GDP] | allowed for low levels of ligation | –
Nc1nc2c(ncn2[C@H]2C[C@H](O)[C@@H](COP(=O)(O)OP(=O)(O)OP(=O)(O)O)O2)c(=O)[nH]1 [dGTP, deoxyguanosine-5′-triphosphate] | – | use as cofactor in RNA ligation with Archease [2]: enables RtcB to use dGTP efficiently as a cofactor; use as cofactor in RNA ligation ([2]; RtcB alone, no Archease, ssRNA 10-nt substrates): ligation activity is reduced substantially; also recorded: at a rate that is much lower than that with GTP; also recorded: ligation efficiency is reduced greatly
NC(=O)c1ccc[n+]([C@@H]2O[C@H](COP(=O)([O-])OP(=O)(O)OC[C@H]3O[C@@H](n4cnc5c(N)ncnc54)[C@H](O)[C@@H]3O)[C@@H](O)[C@H]2O)c1 [NAD^+] | unable to substitute for GTP | –
Nc1nc2c(ncn2[C@@H]2O[C@H](COP(=O)(O)O)[C@@H](O)[C@H]2O)c(=O)[nH]1 [GMP] | allowed for low levels of ligation | –
Nc1nc2c(ncn2C2OC(COP(=O)(O)CP(=O)(O)OP(=O)(O)O)C(O)C2O)c(=O)[nH]1 (stereo not drawn) [GpCpp, guanosine 5′-(α,β-methyleno)-triphosphate] | unreactive; also recorded: did not enable the ligation to proceed | –
C98A: P. horikoshii RtcB with Cys98→Ala98 substitution within predicted metal-binding site (protein, UniProt O59245 1-871, looked up, variant C98A) MVVPLKRIDKIRWEIPKFDKRMRVPGRVYADEVLLEKMKNDRTLEQATNVAMLPGIYKYSIVMPDGHQGYGFPIGGVAAFDVKEGVISPGGIGYDINALAPGTRVLTEHGYWLKIEEMPEKFKLQRLRVYNIEEGHNDFSKVVFVAEREVGSEEKAIRIVTESGKVIEGSEDHPVLTPEGYVYLRNVKEGDYILVYPFEGVPYEEKKGVILDESAFEGEDPQVVKFLRERNLIPLQWKDPKVGILARILGFALANGYISENDNLTFHGKEEVLREVRKDLEELGIEAIVAEEDKLKVTSREFAFLLEKLGMAHDSIPEWIIEGPLWIKRNFLAGLFGANGSIVEFKGDVPLPITLTHSRELLNDVSRILEGFKVRAKIKMGKNGSYQLVIEDEDSIRNFLGRINYEYDPEKKARGLIAYAYLKFKELMKGNLMTFEEFARDRGYEGGFVAEKVIEVKSVKPEYDKFYDIGVYHSAHNFIANGIVVHNCGVRLIRTNLTEKEVRPRIKQLVDTLFKNVPSGVGSQGRIKLHWTQIDDVLVDGAKWAVDNGYGWERDLERLEEGGRMEGADPEAVSQRAKQRGAPQLGSLGSGNHFLEVQVVDKIFDPEVAKAYGLFEGQVVVMVHTGSRGLGHQVASDYLRIMERAIRKYRIPWPDRELVSVPFQSEEGQRYFSAMKAAANFAWANRQMITHWVRESFQEVFKQDPEGDLGMDIVYDVAHNIGKVEEHEVDGKRVKVIVHRKGATRAFPPGHEAVPRLYRDVGQPVLIPGSMGTASYILAGTEGAMKETFGSTCHGAGRVLSRKAATRQYRGDRIRQELLNRGIYVRAASMRVVAEEAPGAYKNVDNVVKVVSEAGIAKLVARMRPIGVAKG | – | ligase activity of RtcB variant ([2]; alanine substitution): abolishes ligase activity
C78A: E. coli RtcB with Cys78→Ala78 substitution within predicted metal-binding site (protein, UniProt P46850 1-408, looked up, variant C78A) RNA-splicing ligase RtcB: MNYELLTTENAPVKMWTKGVPVEADARQQLINTAKMPFIFKHIAVMPDVHLGKGSTIGSVIPTKGAIIPAAVGVDIGAGMNALRTALTAEDLPENLAELRQAIETAVPHGRTTGRCKRDKGAWENPPVNVDAKWAELEAGYQWLTQKYPRFLNTNNYKHLGTLGTGNHFIEICLDESDQVWIMLHSGSRGIGNAIGTYFIDLAQKEMQETLETLPSRDLAYFMEGTEYFDDYLKAVAWAQLFASLNRDAMMENVVTALQSITQKTVRQPQTLAMEEINCHHNYVQKEQHFGEEIYVTRKGAVSARAGQYGIIPGSMGAKSFIVRGLGNEESFCSCSHGAGRVMSRTKAKKLFSVEDQIRATAHVECRKDAEVIDEIPMAYKDIDAVMAAQSDLVEVIYTLRQVVCVKG | – | ligase activity of RtcB variant ([1]; substitution within predicted metal-binding site): abolished ligase activity
Archease: Pyrococcus horikoshii Archease (SEQ ID NO:9; UniProt O59205), N-terminal hexahistidine tag (protein, listed as Pyrococcus horikoshii, N-terminal His6 tag) MKKWEHYEHTADIGIRGYGDSLEEAFEAVAIALFDVMVNVNKVEKKEVREIEVEAEDLEALLYSFLEELLVIHDIEGLVFRDFEVKIERVNGKYRLRAKAYGEKLDLKKHEPKEEVKAITYHDMKIERLPNGKWMAQLVPDI | – | effect of Archease on catalysis of RNA ligation by RtcB ([2]; Archease at concentrations lower than RtcB or RNA, GTP 100 μM (FIG. 9)): significantly enhances the catalytic activity of RtcB
